Test results taken from US20060041016A1, “Composition and method for the treatment of psoriasis” (priority 2004, published 2006).

Legend:
[1] = test system: eye; conditions: tested in the form of an isopropyl ester prodrug; cited from earlier work
[2] = test system: Normal human epithelial keratinocytes; test: Antiproliferative effect on cultured keratinocytes, crystal violet method, absorbance at 595 nm; assay type: cell-based; conditions: for antiproliferative potency relative to PGA2 and the other analogues: normal human epithelial keratinocytes, 7 days incubation, FIG. 1-4
Method: Normal human epithelial keratinocytes, and keratinocyte growth medium (KGM^R-2 Bulletkit; CC-3107 from Clonetics, USA) were purchased from Göteborgs Termometerfabrik AB (Västra Frölunda, Sweden). The cells were cultured at 37° C. in 5% CO2 humidified air according to standard procedure. The cells used for the experiments were at the third passage. 48-well plates were used for the cultures. In each well about 3000 cells were seeded. For each concentration of prostaglandin analogues two wells were used. After completion of the incubation, the wells were washed twice with phosphate buffered saline (PBS). Thereafter the cells were fixed with 1% glutaraldehyde in PBS at +4° C. for 15 min. The wells were then again washed twice with PBS, and thereafter treated with 0.1% crystal violet solution (500 μl/well). The wells were then rinsed with distilled water for 15 sec, three times, and were left to dry completely. The absorbed colour was solubilized in 500 μl 2.5% sodiumdodecyl-sulphate (SDS) in distilled water for 3 hours. The absorbance of the fluid in the wells was determined using a microtiter well spectrophotometer (Multiscan RC V1.3-0) at 595 nm. The experiments were performed in duplicate (two wells). The incubation time was 7 days, and the incubation medium was changed after 3-4 days. The prostaglandin analogues were dissolved directly in the incubation medium. After appropriate incubation the density of cells in the wells was determined using the crystal violet method described above.

[3] = test system: human eye; test: Hyperemia/irritation test using the human eye as a model; assay type: in vivo; conditions: for hyperemia and ocular irritation or pain after application (in words): human eye, topical, 3 individuals, about 10^−4 M and about 3×10^−4 M; for Difference in irritation PGA2 - JB991 acid / Difference in hyperemia PGA2 - JB991 acid: topical on eye, n = 3; for Difference in irritation PGA2 - JB991 acid: categorical scale, Mean ± SEM; for Difference in hyperemia PGA2 - JB991 acid: scale 0-3, Mean ± SEM
Method: PGA2 and 17-phenyl-18,19,20-trinor-PGA2, synthesized as described above, were formulated in vehicles suitable for hyperemia/irritation tests using the human eye as a model. The superficial redness of the eyes was documented by colour photographs before, and 15, 30, 60 and 120 min after application of the test substances. One eye was treated with the prostaglandin analogue and the other eye with the vehicle only. Ocular irritation or pain was recorded at the same time points. The two test substances at a concentration of 26 μg/ml (about 10^−4 M) were tested in the same eye of three healthy individuals a few days apart.
About a week later, a higher concentration of each compound, 84 μg/ml of PGA2 and 96 μg/ml of 17-phenyl-18,19,20-trinor-PGA2 (both concentrations corresponding to about 3×10^−4 M) was again tested a few days apart in the same eyes of the same individuals. The concentrations used are relevant since for the treatment of psoriasis the drugs have to be used at approximately this concentration range. The hyperemia was evaluated on a scale from 0 (no hyperemia) to 3 (maximum hyperemia) using half steps. A similar categorical scale was used for the ocular irritation or pain. […]

[4] = test system: BAX gene expression (BAX-protein) in human keratinocytes; test: Expression of the pro-apoptotic BAX gene by immunocytochemistry; assay type: cell-based
Method: The cells, cultivated essentially as described above, were trypsinized, the solution centrifuged, and the pellet resuspended and transferred to a microscopic slide with cover slip. Immunocytochemistry was performed according to standard technique. BAX (N-20)-affinity purified rabbit polyclonal antibodies were purchased from Santa Cruz Biotechnology Inc. (Santa Cruz, Calif.), and used at a dilution of 1:200. Secondary goat-antirabbit antibodies conjugated to horseradish peroxidase (Dako Envision+TM) obtained from Dako (Carpinteria, Calif., USA) were used for detecting the primary antibodies. After appropriate rinsing the preparations were incubated with […] as chromogenic substrate for the horseradish peroxidase for 10 min at room temperature. […] The preparations were finally examined in a Nikon FTX fluorescence microscope equipped with camera, and colour photographs were taken of representative cells.
In another set of experiments, intravital staining for detection of apoptosis/necrosis in keratinocytes cultivated as above in the absence and presence of BR280 (17-phenyl-18,19,20-trinor-PGA2) was performed with propidium-iodide/Hoechst 33342 (bisbenzimide) purchased from Sigma Chemical Company (St. Louis, Mo.). […] The cells were examined in a Nikon FTX fluorescence microscope equipped with a UV-2A filter and camera. […]

[5] = test system: human keratinocytes; test: Intravital staining with propidium-iodide/Hoechst 33342 for apoptosis/necrosis; assay type: cell-based; conditions: keratinocytes exposed for 7 days
Method: In another set of experiments, intravital staining for detection of apoptosis/necrosis in keratinocytes cultivated as above in the absence and presence of BR280 (17-phenyl-18,19,20-trinor-PGA2) was performed with propidium-iodide/Hoechst 33342 (bisbenzimide) purchased from Sigma Chemical Company (St. Louis, Mo.). A mixture of propidium-iodide (10 μg/ml) and Hoechst 33342 (5 μg/ml) was added to the culture medium. The cells were incubated in the medium for 10 min at 37° C. The medium was harvested for free floating cells while the attached cells were washed once with Ca^++/Mg^++ free Hanks solution (Sigma Chemical Company), or PBS. Thereafter 1.5 ml of a 0.5% trypsin/EDTA solution (Ca^++/Mg^++ free Hanks solution, or PBS) was added and incubation was carried out for 5 min at 37° C. The solution was then centrifuged for 1 min (500 g). The pellet was resuspended in 0.5 ml PBS, and the solution was centrifuged as above. The pellet was then suspended in 20 μl PBS, and the solution containing the cells was placed on a microscopic slide with cover slip. The cells were examined in a Nikon FTX fluorescence microscope equipped with a UV-2A filter and camera. Colour photographs were taken of representative cells. The prostaglandin analogue (BR280) was diluted directly in the culture medium. […]

[6] = Dose 2 (84 μg/ml; JB991 acid 96 μg/ml), 0 min
[7] = Dose 2 (84 μg/ml; JB991 acid 96 μg/ml), 15 min
[8] = Dose 2 (84 μg/ml; JB991 acid 96 μg/ml), 30 min
[9] = Dose 2 (84 μg/ml; JB991 acid 96 μg/ml), 60 min
[10] = Dose 2 (84 μg/ml; JB991 acid 96 μg/ml), 120 min

Structure (SMILES): O=C(O)CCC/C=C\CC1C(=O)C=CC1CCC(O)CCc1ccccc1 (stereo not drawn)
- hyperemia in the eye [1]: caused some hyperemia in the eye

Structure (SMILES): O=C(O)CCC/C=C\CC1C(=O)C=CC1/C=C/C(O)COc1cccc(C(F)(F)F)c1 (stereo not drawn) [BR277, 16-phenoxy-(3-trifluormethyl)-17,18,19,20-tetranor-PGA2]
- antiproliferative potency relative to PGA2 and the other analogues [2]: next most potent of the PGA2 analogues

Structure (SMILES): O=C(O)CCC/C=C\CC1C(=O)C=CC1CCC(O)CCc1ccccc1 (stereo not drawn) [BR278, 13,14-dihydro-17-phenyl-18,19,20-trinor-PGA2]
- antiproliferative potency relative to PGA2 and the other analogues [2]: lowest potency

Structure (SMILES): O=C(O)CCC/C=C\CC1C(=O)C=CC1/C=C/C(O)CCc1ccccc1 (stereo not drawn) [BR280, 17-phenyl-18,19,20-trinor-PGA2]
- hyperemia and ocular irritation or pain after application (in words) [3]: no hyperemic effect or irritative effect whatsoever
- antiproliferative potency relative to PGA2 and the other analogues [2]: even more potent than PGA2
- BAX gene expression (BAX-protein) immunostaining ([4]; human keratinocytes exposed at different concentrations, 2 days incubation): could be demonstrated
- BAX gene expression effect at low concentrations ([4]; lower concentrations than 10^−5 M): weak or absent
- signs of apoptosis by intravital staining [5]: Markedly condensed and fragmented nuclei and apoptotic bodies could be demonstrated

Structure (SMILES): CCCCC[C@H](O)/C=C/[C@H]1C=CC(=O)[C@@H]1C/C=C\CCCC(=O)O [PGA2, prostaglandin A2]
- Difference in irritation PGA2 - JB991 acid ([3]; Dose 1 (26 μg/ml), 0 min): 0.00 ± 0.00
- Difference in hyperemia PGA2 - JB991 acid ([3]; Dose 1 (26 μg/ml), 0 min): 0.00 ± 0.00
- Difference in irritation PGA2 - JB991 acid ([3]; Dose 1 (26 μg/ml), 15 min): 1.00 ± 0.29
- Difference in hyperemia PGA2 - JB991 acid ([3]; Dose 1 (26 μg/ml), 15 min): 1.33 ± 0.60
- Difference in irritation PGA2 - JB991 acid ([3]; Dose 1 (26 μg/ml), 30 min): 1.17 ± 0.33
- Difference in hyperemia PGA2 - JB991 acid ([3]; Dose 1 (26 μg/ml), 30 min): 1.17 ± 0.44
- Difference in irritation PGA2 - JB991 acid ([3]; Dose 1 (26 μg/ml), 60 min): 0.50 ± 0.29
- Difference in hyperemia PGA2 - JB991 acid ([3]; Dose 1 (26 μg/ml), 60 min): 0.67 ± 0.44
- Difference in irritation PGA2 - JB991 acid ([3]; Dose 1 (26 μg/ml), 120 min): 0.17 ± 0.17
- Difference in hyperemia PGA2 - JB991 acid ([3]; Dose 1 (26 μg/ml), 120 min): 0.17 ± 0.17
- Difference in irritation PGA2 - JB991 acid [3, 6]: 0.00 ± 0.00
- Difference in hyperemia PGA2 - JB991 acid [3, 6]: 0.00 ± 0.00
- Difference in irritation PGA2 - JB991 acid [3, 7]: 1.83 ± 0.44 *)
- Difference in hyperemia PGA2 - JB991 acid [3, 7]: 2.17 ± 0.44 **)
- Difference in irritation PGA2 - JB991 acid [3, 8]: 1.33 ± 0.60
- Difference in hyperemia PGA2 - JB991 acid [3, 8]: 2.17 ± 0.44 **)
- Difference in irritation PGA2 - JB991 acid [3, 9]: 0.83 ± 0.44
- Difference in hyperemia PGA2 - JB991 acid [3, 9]: 1.33 ± 0.60
- Difference in irritation PGA2 - JB991 acid [3, 10]: 0.33 ± 0.17
- Difference in hyperemia PGA2 - JB991 acid [3, 10]: 0.50 ± 0.29
- hyperemia and ocular irritation or pain after application (in words) [3]: causes both these disadvantageous side-effects
- complete cell death ([2]; highest concentration tested): Neither PGA2 nor any of the analogues tested were able to cause complete cell death
